The subject of experiment [1] is Septoria tritici (ATCC 26517). The experiment in a line: Minimum Inhibitory Concentration (MIC) (Septoria tritici), CLSI-based microdilution. It is filed as cell-based. The settings on record: S. tritici ATCC 26517, 22° C. for seven days, 50% reduction in growth; for MIC: Zymoseptoria tritici, ATCC26517, 168 h, read-out: Septoria Rating (MIC). On the procedure:
C. Minimum Inhibitory Concentration (MIC) (Septoria tritici)
Compounds of the present disclosure were assessed for their ability to inhibit the growth of a common strain of the fungal plant pathogen Septoria tritici (ATCC 26517) using a procedure based on a Clinical and Laboratory Standards Institute (CLSI) microdilution assay protocol for filamentous fungi.
Stock solutions of the test compounds and standards were prepared in DMSO at 6400 μg/mL. Each stock solution was used to prepare a 2-fold dilution series ranging from 16 to 0.016 μg/mL (total of 11 compound concentrations) in RPMI-1640 (Roswell Park Memorial Institute) medium containing 3-(N-morpholino)propanesulfonic acid (MOPS) buffer and 2% DMSO. A 100 μL aliquot of the dilutions was added to columns 1 (16 μg/mL compound) through 11 (0.016 μg/mL compound) of a 96-well microtiter plate. This format was replicated in a second row of the microtiter plate. Thus, each microtiter plate could include 11 concentrations of four test or control compounds replicated twice. A 100 μL aliquot of RPMI-1640/MOPS/2% DMSO medium was added to column 12 (no compound control) of the microtiter plate.
A fresh culture of S. tritici was used to prepare a solution of approximately 5×10^4 colony-forming units per milliliter (cfu/mL) in RPMI/MOPS medium without DMSO. A 100 µL aliquot of this solution was added to all 96 wells in the microtiter plate. […] The assay plates were incubated at 22° C. for seven days in the dark without shaking.
In each case of Table 3 the Septoria rating scale is as follows: […]
In general terms: Dilution methods test growth across graded concentrations, often in twofold steps.

In experiment [2] the test system is Puccinia recondita tritici = Puccinia triticina. The experiment in a line: Fungicidal activity vs. leaf rust on wheat plants. The settings on record: wheat (variety Yuma) sprayed at 50 ppm, inoculated on the following day, evaluated 7-9 days later; read-out: Puccinia Rating (% Disease Control @ 50 ppm). It is filed as in vivo. An excerpt: D. Evaluation of Fungicidal Activity Vs. Leaf Rust (Causal Agent Puccinia recondita tritici=Puccinia triticina; Bayer Code PUCCRT). […] Each pot contained 3-8 seedlings. These plants were sprayed until wet with the formulated test compounds. The compounds were formulated at 50 ppm in 10 vol. % acetone plus 90 vol. % Triton X water (deionized water 99.99 wt %+0.01 wt % Triton X100), giving a “formulated test compound.” Formulated test compounds were applied to plants using a turn table sprayer fitted with two opposing air atomization nozzles which delivered approximately 1500 L/ha of spray volume. On the following day, the leaves were inoculated with an aqueous spore suspension of Puccinia recondita tritici and the plants were kept in high humidity overnight to permit spores to germinate and infect the leaf. The plants were then transferred to a greenhouse until disease developed on untreated control plants. Disease severity was evaluated 7-9 days later, depending on the speed of disease development. In each case of Table 3, the Puccinia rating scale is as follows: […]

By MIC is commonly meant the lowest concentration that inhibits growth of the organism.

≈ marks a conversion by molar mass, not a printed value. Where only a bound is given, the exact number is not on record here.

Regarding `OC(Cn1cnnn1)(c1ccc(F)cc1F)C(F)(F)c1ccccn1` (stereo not drawn) [2(−), 2-(2,4-Difluorophenyl)-1,1-difluoro-1-(pyridin-2-yl)-3-(1H-tetrazol-1-yl)propan-2-ol], the minimal inhibitory concentration (MIC) in experiment [1] was at most 0.5 µg/mL. In addition, in experiment [2], the pest or weed control at 50 ppm lay within 80 to 100%.

As for `OC(Cn1cnnn1)(c1ccc(F)cc1F)C(F)(F)c1ccc(Br)cn1` (stereo not drawn) [Compound 1, 1-(5-Bromopyridin-2-yl)-2-(2,4-difluorophenyl)-1,1-difluoro-3-(1H-tetrazol-1-yl)propan-2-ol], the minimum inhibitory concentration (MIC) in experiment [1] was at most 0.5 µg/mL. In addition, the pest or weed control at 50 ppm in experiment [2] is 80 to 100%. Regarding `OC(Cn1cnnn1)(c1ccc(F)cc1F)C(F)(F)c1ccc(F)cn1` (stereo not drawn) [Compound 10, 2-(2,4-Difluorophenyl)-1,1-difluoro-1-(5-fluoropyridin-2-yl)-3-(1H-tetrazol-1-yl)propan-2-ol], the MIC in experiment [1] turned out to be 1.5 µg/mL (≈ 4.04 µM). In addition, the pest or weed control at 50 ppm in experiment [2] was in the range of 80 to 100%. As to `OC(Cn1cnnn1)(c1ccc(F)cc1F)C(F)(F)c1ccc(CC(F)(F)F)cn1` (stereo not drawn) [Compound 17, 2-(2,4-Difluorophenyl)-1,1-difluoro-3-(1H-tetrazol-1-yl)-1-(5-(2,2,2-trifluoroethyl)pyridin-2-yl)propan-2-ol], the minimal inhibitory concentration (MIC) in experiment [1] is at most 0.5 µg/mL. The pest or weed control at 50 ppm in experiment [2] was in the range of 80 to 100%. As for `OC(Cn1cnnn1)(c1ccc(F)cc1F)C(F)(F)c1ccc(C2CC2)cn1` (stereo not drawn) [Compound 18, 1-(5-Cyclopropylpyridin-2-yl)-2-(2,4-difluorophenyl)-1,1-difluoro-3-(1H-tetrazol-1-yl)propan-2-ol], the minimum inhibitory concentration (MIC) in experiment [1] was at most 0.5 µg/mL. The pest or weed control at 50 ppm in experiment [2] lay within 80 to 100%. Regarding `OC(Cn1cnnn1)(c1ccc(Cl)cc1F)C(F)(F)c1ccc(Br)cn1` (stereo not drawn) [Compound 22, 1-(5-Bromopyridin-2-yl)-2-(4-chloro-2-fluorophenyl)-1,1-difluoro-3-(1H-tetrazol-1-yl)propan-2-ol], in experiment [1], the MIC is at most 0.5 µg/mL. Moreover, the pest or weed control at 50 ppm in experiment [2] lay within 80 to 100%. As to `Cc1ccc(C(F)(F)C(O)(Cn2cnnn2)c2ccc(F)cc2F)nc1` (stereo not drawn) [Compound 25, 2-(2,4-Difluorophenyl)-1,1-difluoro-1-(5-methylpyridin-2-yl)-3-(1H-tetrazol-1-yl)propan-2-ol], the MIC in experiment [1] came out at 1.5 µg/mL (≈ 4.08 µM). The pest or weed control at 50 ppm in experiment [2] lay within 80 to 100%.

With `OC(Cn1cnnn1)(c1ccc(Cl)cc1F)C(F)(F)c1ccc(Cl)cn1` (stereo not drawn) [Compound 26, 2-(4-Chloro-2-fluorophenyl)-1-(5-chloropyridin-2-yl)-1,1-difluoro-3-(1H-tetrazol-1-yl)propan-2-ol], the MIC in experiment [1] was at most 0.5 µg/mL. Moreover, the pest or weed control at 50 ppm in experiment [2] lay in the range of 80 to 100%. On the same counts, the results for `OC(Cn1cnnn1)(c1ccc(Cl)cc1F)C(F)(F)c1ccc(F)cn1` (stereo not drawn) [Compound 27, 2-(4-Chloro-2-fluorophenyl)-1,1-difluoro-1-(5-fluoropyridin-2-yl)-3-(1H-tetrazol-1-yl)propan-2-ol] are 1.5 µg/mL (≈ 3.87 µM) and 80 to 100%.

With `OC(c1cncnc1)(c1ccc(F)cc1F)C(F)(F)c1ccc(Br)cn1` (stereo not drawn) [Compound 58, 2-(5-Bromopyridin-2-yl)-1-(2,4-difluorophenyl)-2,2-difluoro-1-(pyrimidin-5-yl)ethanol], the MIC in experiment [1] came out at 1.5 µg/mL (≈ 3.5 µM).

On to `C=CCc1ccc(C(F)(F)C(O)(Cn2cnnn2)c2ccc(F)cc2F)nc1` (stereo not drawn) [Compound 61, 1-(5-Allylpyridin-2-yl)-2-(2,4-difluorophenyl)-1,1-difluoro-3-(1H-tetrazol-1-yl)propan-2-ol], for which, in experiment [1], the MIC was 1.5 to 4 µg/mL (≈ 3.81 to 10.2 µM). As to `OC(Cc1cc[nH]n1)(c1ccc(F)cc1F)C(F)(F)c1ccc(Br)cn1` (stereo not drawn) [Compound 62, 1-(5-Bromopyridin-2-yl)-2-(2,4-difluorophenyl)-1,1-difluoro-3-(1H-pyrazol-3-yl)propan-2-ol], the minimal inhibitory concentration (MIC) in experiment [1] is at most 0.5 µg/mL. For the compound `OC(Cc1cc[nH]n1)(c1ccc(F)cc1F)C(F)(F)c1ccc(-n2nccn2)cn1` (stereo not drawn) [Compound 63, 1-(5-(2H-1,2,3-Triazol-2-yl)pyridin-2-yl)-2-(2,4-difluorophenyl)-1,1-difluoro-3-(1H-pyrazol-3-yl)propan-2-ol], in experiment [1], the MIC was found to be 1.5 µg/mL (≈ 3.59 µM). Turning to `OC(Cc1cc[nH]n1)(c1ccc(F)cc1F)C(F)(F)c1ccc(-n2ccnn2)cn1` (stereo not drawn) [Compound 64, 1-(5-(1H-1,2,3-Triazol-1-yl)pyridin-2-yl)-2-(2,4-difluorophenyl)-1,1-difluoro-3-(1H-pyrazol-3-yl)propan-2-ol], the minimal inhibitory concentration (MIC) in experiment [1] is over 4 µg/mL.

`OC(Cc1cn[nH]c1)(c1ccc(F)cc1F)C(F)(F)c1ccccn1` (stereo not drawn) [Compound 65, 2-(2,4-Difluorophenyl)-1,1-difluoro-3-(1H-pyrazol-4-yl)-1-(pyridin-2-yl)propan-2-ol]: in experiment [1], the MIC was in the range of 1.5 to 4 µg/mL (≈ 4.27 to 11.4 µM). The same measure, in the same setting: as for `O=C(c1ccc(C(F)(F)C(O)(Cn2cnnn2)c2ccc(F)cc2F)nc1)c1ccc(F)c(F)c1` (stereo not drawn) [Compound 70, (3,4-Difluorophenyl)(6-(2-(2,4-difluorophenyl)-1,1-difluoro-2-hydroxy-3-(1H-tetrazol-1-yl)propyl)pyridin-3-yl)methanone], the figure is at most 0.5 µg/mL; as for `OC(c1ccc(C(F)(F)F)cc1)c1ccc(C(F)(F)C(O)(Cn2cnnn2)c2ccc(F)cc2F)nc1` (stereo not drawn) [Compound 72, 2-(2,4-Difluorophenyl)-1,1-difluoro-1-(5-(hydroxy(4-(trifluoromethyl)phenyl)methyl)pyridin-2-yl)-3-(1H-tetrazol-1-yl)propan-2-ol], 1.5 to 4 µg/mL (≈ 2.84 to 7.58 µM). On the same count and under the same terms, to `OC(Cn1cnnn1)(c1ccc(F)cc1F)C(F)(F)c1ccc(C(F)(F)c2ccc(Cl)cc2)cn1` (stereo not drawn) [Compound 74, 1-(5-((4-Chlorophenyl)difluoromethyl)pyridin-2-yl)-2-(2,4-difluorophenyl)-1,1-difluoro-3-(1H-tetrazol-1-yl)propan-2-ol] belongs 1.5 to 4 µg/mL (≈ 2.92 to 7.78 µM); to `OC(Cn1cnnn1)(c1ccc(F)cc1F)C(F)(F)c1ccc(-c2ccc(Br)s2)cn1` (stereo not drawn) [Compound 78, 1-(5-(5-Bromothiophen-2-yl)pyridin-2-yl)-2-(2,4-difluorophenyl)-1,1-difluoro-3-(1H-tetrazol-1-yl)propan-2-ol], at most 0.5 µg/mL. The same measure, in the same setting: to `N#Cc1ccc(OCc2ccc(C(F)(F)C(O)(Cn3ncnn3)c3ccc(F)cc3F)nc2)cc1` (stereo not drawn) [Compound 80, 4-((6-(2-(2,4-Difluorophenyl)-1,1-difluoro-2-hydroxy-3-(2H-tetrazol-2-yl)propyl)pyridin-3-yl)methoxy)benzonitrile] belongs over 4 µg/mL; to `OC(Cn1cnnn1)(c1ccc(F)cc1F)C(F)(F)c1ccc(N2CCOCC2)cn1` (stereo not drawn) [Compound 81, 2-(2,4-Difluorophenyl)-1,1-difluoro-1-(5-morpholinopyridin-2-yl)-3-(1H-tetrazol-1-yl)propan-2-ol], 1.5 to 4 µg/mL (≈ 3.42 to 9.12 µM).

`OC(Cn1cnnn1)(c1ccc(F)cc1F)C(F)(F)c1ccc(N2CCCCC2)cn1` (stereo not drawn) [Compound 82, 2-(2,4-Difluorophenyl)-1,1-difluoro-1-(5-(piperidin-1-yl)pyridin-2-yl)-3-(1H-tetrazol-1-yl)propan-2-ol]: in experiment [1], the minimal inhibitory concentration (MIC) was in the range of 1.5 to 4 µg/mL (≈ 3.44 to 9.17 µM). On the same count and under the same terms, to `CC(F)(c1ccc(Br)cn1)C(O)(Cn1cnnn1)c1ccc(F)cc1F` (stereo not drawn) [Compound 84, 3-(5-Bromopyridin-2-yl)-2-(2,4-difluorophenyl)-3-fluoro-1-(1H-tetrazol-1-yl)butan-2-ol] belongs 1.5 µg/mL (≈ 3.5 µM).

On to `CC(F)(c1ccc(Br)cn1)C(O)(Cn1cnnn1)c1ccc(F)cc1F` (stereo not drawn) [Compound 85, 3-(5-Bromopyridin-2-yl)-2-(2,4-difluorophenyl)-3-fluoro-1-(1H-tetrazol-1-yl)butan-2-ol], for which, in experiment [1], the “Septoria Rating (MIC)” value is “C (>1.5-4)”. As to `OC(Cc1cncs1)(c1ccc(F)cc1F)C(F)(F)c1ccccn1` (stereo not drawn) [Compound 86, 2-(2,4-Difluorophenyl)-1,1-difluoro-1-(pyridin-2-yl)-3-(thiazol-5-yl)propan-2-ol], the MIC in experiment [1] is at most 0.5 µg/mL. As to `CC(C)OCc1ccc(C(F)(F)C(O)(Cn2cnnn2)c2ccc(F)cc2F)nc1` (stereo not drawn) [Compound 91, 2-(2,4-difluorophenyl)-1,1-difluoro-1-(5-(isopropoxymethyl)pyridin-2-yl)-3-(1H-tetrazol-1-yl)propan-2-ol], the minimum inhibitory concentration (MIC) in experiment [1] is 1.5 µg/mL (≈ 3.53 µM).

As to `OC(Cn1cnnn1)(c1ccc(F)cc1F)C(F)(F)c1ccc(Cc2ccc(Cl)nc2)cn1` (stereo not drawn) [Compound 97, 1-(5-((6-chloropyridin-3-yl)methyl)pyridin-2-yl)-2-(2,4-difluorophenyl)-1,1-difluoro-3-(1H-tetrazol-1-yl)propan-2-ol], the minimal inhibitory concentration (MIC) in experiment [1] is at most 0.5 µg/mL.
